Experimental data published in patent publication US20260027380A1, “TECHNIQUES FOR MAGNETIC NANOCLUSTER-BASED COMBINATION THERAPY” (William Marsh Rice University, priority 2022, published 2026).

Columns and labels:
MC-38 cells [1] = test: Detection of intracellular free radicals (H2DCFDA); type: cell-based, murine; conditions: without AMF
Procedure: Additionally, intracellular free radical generation by IONC-AAPH was measured using 2′,7′-dichlorodihydrofluorescein diacetate (H2DCFDA) as an intracellular free radical probe. H2DCFDA is a non-fluorescent cell-permeant compound. Upon oxidation by free radicals, H2DCFDA is converted to a highly fluorescent 2′,7′-dichlorofluorescein (DCF). MC-38 cells (murine colon adenocarcinoma cell line) were pre-incubated with IONC or IONC-AAPH (at 300 μg Fe/mL concentration) for 1 h to allow internalization into cells. The intracellular IONC and IONC-AAPH were 0.79±0.16 and 0.87±0.12 pg Fe/cell, respectively, as quantified by a ferrozine-based colorimetric assay. After internalization, the cells were exposed to AMF for 1 h. The intracellular free radicals in the MC-38 cells were then examined with H2DCFDA through fluorescence microscopy and flow cytometry. FIG. 4 illustrates a flow cytometry analysis of intracellular free radicals in MC-38 cells detected via fluorescence from DCF. Further, FIG. 5 is a graph illustrating the quantification of intracellular free radicals (e.g., quantification of the mean fluorescence of DCF). The data in FIG. 5 represents the mean DCF fluorescence of each group +the standard error of mean (s.e.m.).
Detection of intracellular free radicals: The intracellular generation of free radicals was determined using H2DCFDA probe. […]

MC-38 cells [2] = test: Lipid peroxidation (MDA level); type: cell-based, murine; conditions: without AMF
Procedure: Further, the effect of IONC-AAPH induced heat and free radicals on lipids was quantified by measuring the level of malondialdehyde (MDA). Malondialdehyde (MDA) is one of the final products of lipid peroxidation. MDA is a widely used biomarker of oxidative stress. Accordingly, the extent of lipid peroxidation after IONC-AAPH treatment was measured via MDA levels. FIG. 12 illustrates a quantification of MDA levels in MC-38 cells 2 hours after treatment. It was observed that the MC-38 cells treated with free AAPH, IONC, and IONC-AAPH, respectively, without AMF, as well as cells treated with IONC under AMF had some increase in MDA levels compared with that of control cells, as shown in FIG. 12. The low levels of lipid peroxidation in these groups may have resulted from the free radicals generated from the slow decomposition of AAPH at 37° C., or the IONC induced fenton/fenton-like reaction, or their combination (IONC-AAPH without AMF).
Determination of lipid peroxidation: The lipid peroxidation of MC-38 cells was determined by measuring the production of malondialdehyde (MDA). MC-38 cells cultured in 4-compartment cell culture dishes were treated with 300 μg Fe/mL of IONC-AAPH or IONC at 37° C. or under AMF for 2 h. Two hours post the treatment, the cells were lysed, and the MDA levels were quantified using a fluorescence-based MDA Assay Kit following the manufacturer's instructions.

[3] = system: bone marrow-derived dendritic cells (BMDCs); test: Dendritic cell maturation, coculture with treated MC-38 cells; type: cell-based, C57BL/6N mice; conditions: without AMF
Procedure: Dendritic cells (DCs) are a key type of antigen-presenting cells that play critical roles in initiating and regulating antitumor immune response. To determine if the immunogenic cell death induced by magnetotherapy can activate dendritic cells, bone marrow-derived dendritic cells (BMDCs) were cocultured with IONC-AAPH-treated MC-38 cells, together with the medium containing DAMPs, in a transwell system for 24 h. The maturation of dendritic cells was estimated as the percentage of CD80+CD86+ cells in CD11c+ cells. […] The percentage of mature DCs in IONC and IONC-AAPH groups was 2.1-fold of the blank.
Determination of Dendritic Cell Maturation: The bone marrow-derived dendritic cells (BMDCs) were prepared from the bone marrow of 8-week old C57BL/6N mice according to an established protocol. To determine the stimulatory effect on BMDCs, IONC-AAPH-treated MC-38 cells (together with the medium containing DAMPs) were cocultured with BMDCs for 24 h in a transwell system (pore size=3 μm). BMDCs only (without coculture) were included as the blank groups. The BMDCs were collected, blocked with CD16/CD32 antibody, and stained with PECD11c, FITC-CD80, and APC-CD86. The data were acquired on MA900 Multi-Application Cell Sorter (Sony) and analyzed using FlowJo software (Tree Star).

MC-38 cells [4] = test: Evaluation of F-actin morphology (phalloidin staining); type: cell-based, murine; conditions: without heating (no AMF)
From the text: To examine the effect of heating and free radicals on the actin cytoskeleton, actin filaments (F-actin) were stained with fluorescent phalloidin. […] In cells subjected to heating and free radicals but still showing phalloidin staining, the actin filaments were further retracted and more condensed compared with cells under heating only. FIG. 8 illustrates a quantification of MC-38 cells with F-actin structure in the above-described morphological analysis. […] In the cells with phalloidin staining, the actin filaments were further retracted and more condensed compared with the hyperthermia only group.
Evaluation of F-actin morphology: The F-actin morphology of MC-38 cells was evaluated by phalloidin staining. MC-38 cells were seeded in 4-compartment cell culture dishes and cultured overnight. The cells were then treated with 300 μg Fe/mL of IONC-AAPH or IONC at 37° C. or under AMF for 90 min. Four hours after the treatment, the cells were fixed, permeabilized, and blocked as described above. Then the cells were incubated with Alexa Fluor 568-labeled phalloidin for 30 min at room temperature, followed by staining with Hoechst 33342 for 10 min at room temperature. Images were collected using a Nikon Al-Rsi confocal microscope.

## CC(C)(N=NC(C)(C)C(=N)N)C(=N)N.Cl.Cl [AAPH, 2,2′-azobis(2-amidinopropane) dihydrochloride]
MC-38 cells [1]
  intracellular free radicals (DCF fluorescence): negligible fluorescence
MC-38 cells [2]
  MDA level vs control cells: some increase
[3]
  effect on DC maturation: did not show a noticeable effect
MC-38 cells [4]
  F-actin morphology: well organized and elongated
